Values of other authors in patent publication US9012510B2, “Oleoylethanolamide based functional mesophases” (Nestec S.A., priority 2008, dated 2015).

Details: Thabuis et al., Lipid Technology 2007, 19, 225

For CCCCCCCC/C=C\CCCCCCCC(=O)NCCO [OEA, oleoylethanolamide], the “effect of administration on food intake and gain in body mass” value is listed as “potent and persistent decrease in food intake and gain in body mass”.
